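Protocol summary: plate cells (96-well), add compound at 5 concentrations, incubate 48 h, interpolate endpoints linearly. GI50 marks 50% less growth. TGI marks complete inhibition of growth.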
Key:
Assay in all cases: NCI-60 cell line screen, 48 h
MALME-3M melanoma = test system: MALME-3M melanoma
OVCAR-8 ovarian = test system: OVCAR-8 ovarian
IGROV1 ovarian = test system: IGROV1 ovarian
CAKI-1 renal = test system: CAKI-1 renal
NCI-H23 lung = test system: NCI-H23 lung
A549 NSCLC = test system: A549 NSCLC
SNB-19 CNS = test system: SNB-19 CNS
SF-539 CNS = test system: SF-539 CNS
UO-31 renal = test system: UO-31 renal
OVCAR-4 ovarian = test system: OVCAR-4 ovarian
UACC-62 melanoma = test system: UACC-62 melanoma
SK-OV-3 ovarian = test system: SK-OV-3 ovarian
OVCAR-5 ovarian = test system: OVCAR-5 ovarian
OVCAR-3 ovarian = test system: OVCAR-3 ovarian
HCT-116 colon = test system: HCT-116 colon
MCF7 breast = test system: MCF7 breast
COLO 205 colon = test system: COLO 205 colon
MDA-MB-231 breast = test system: MDA-MB-231 breast
NCI-H226 lung = test system: NCI-H226 lung
CCRF-CEM leukemia = test system: CCRF-CEM leukemia
HS 578T breast = test system: HS 578T breast
HOP-92 NSCLC = test system: HOP-92 NSCLC
SK-MEL-5 melanoma = test system: SK-MEL-5 melanoma
UACC-257 melanoma = test system: UACC-257 melanoma
SF-295 CNS = test system: SF-295 CNS
RPMI-8226 leukemia = test system: RPMI-8226 leukemia
SW-620 colon = test system: SW-620 colon
HCC-2998 colon = test system: HCC-2998 colon
SK-MEL-2 melanoma = test system: SK-MEL-2 melanoma
SR leukemia = test system: SR leukemia
DU-145 prostate = test system: DU-145 prostate
SN12C renal = test system: SN12C renal
LOX IMVI melanoma = test system: LOX IMVI melanoma
SK-MEL-28 melanoma = test system: SK-MEL-28 melanoma
PC-3 prostate = test system: PC-3 prostate
ACHN renal = test system: ACHN renal
BT-549 breast = test system: BT-549 breast
KM12 colon = test system: KM12 colon
HOP-62 NSCLC = test system: HOP-62 NSCLC
TK-10 renal = test system: TK-10 renal
K-562 leukemia = test system: K-562 leukemia
SNB-75 CNS = test system: SNB-75 CNS
EKVX NSCLC = test system: EKVX NSCLC
RXF 393 renal = test system: RXF 393 renal
HL-60(TB) leukemia = test system: HL-60(TB) leukemia
SF-268 CNS = test system: SF-268 CNS
A498 renal = test system: A498 renal
MOLT-4 leukemia = test system: MOLT-4 leukemia
U251 CNS = test system: U251 CNS
NCI-H460 lung = test system: NCI-H460 lung
HT29 colon = test system: HT29 colon
M14 melanoma = test system: M14 melanoma
786-0 renal = test system: 786-0 renal
MDA-MB-435 = test system: MDA-MB-435
HCT-15 colon = test system: HCT-15 colon
T-47D breast = test system: T-47D breast
NCI/ADR-RES ovarian = test system: NCI/ADR-RES ovarian

N#C/C(=N\Nc1ccc(F)cc1)C(=O)Nc1cc(-c2ccccc2)nn1-c1ccccc1
GI50 (MALME-3M melanoma): 1.85 µM | TGI (MALME-3M melanoma): 13.4 µM | GI50 (OVCAR-8 ovarian): 2.61 µM | TGI (OVCAR-8 ovarian): 63.8 µM | GI50 (IGROV1 ovarian): 3.69 µM | TGI (IGROV1 ovarian): 18.3 µM | GI50 (CAKI-1 renal): 1.56 µM | TGI (CAKI-1 renal): 8.72 µM | GI50 (NCI-H23 lung): 1.75 µM | TGI (NCI-H23 lung): 10.6 µM | GI50 (A549 NSCLC): 2.45 µM | TGI (A549 NSCLC): 15.6 µM | GI50 (SNB-19 CNS): 2.99 µM | TGI (SNB-19 CNS): 13.4 µM | GI50 (SF-539 CNS): 3.26 µM | TGI (SF-539 CNS): 12.8 µM | GI50 (UO-31 renal): 2.5 µM | TGI (UO-31 renal): 13.4 µM | GI50 (OVCAR-4 ovarian): 2.39 µM | TGI (OVCAR-4 ovarian): 21.8 µM | GI50 (UACC-62 melanoma): 0.853 µM | TGI (UACC-62 melanoma): 17 µM | GI50 (SK-OV-3 ovarian): 1.61 µM | TGI (SK-OV-3 ovarian): 6.39 µM | GI50 (OVCAR-5 ovarian): 3.52 µM | TGI (OVCAR-5 ovarian): 17.2 µM | GI50 (OVCAR-3 ovarian): 2.4 µM | TGI (OVCAR-3 ovarian): 15.6 µM | GI50 (HCT-116 colon): 2.16 µM | TGI (HCT-116 colon): 11.5 µM | GI50 (MCF7 breast): 2.11 µM | TGI (MCF7 breast): 11.4 µM | GI50 (COLO 205 colon): 1.82 µM | TGI (COLO 205 colon): 3.6 µM | GI50 (MDA-MB-231 breast): 1.99 µM | TGI (MDA-MB-231 breast): 5.6 µM | GI50 (NCI-H226 lung): 2.84 µM | TGI (NCI-H226 lung): 13.7 µM | GI50 (CCRF-CEM leukemia): 1.21 µM | TGI (CCRF-CEM leukemia): 9.31 µM | GI50 (HS 578T breast): 3.39 µM | TGI (HS 578T breast): 53.8 µM | GI50 (HOP-92 NSCLC): 0.427 µM | TGI (HOP-92 NSCLC): 3.85 µM | GI50 (SK-MEL-5 melanoma): 0.821 µM | TGI (SK-MEL-5 melanoma): 3.16 µM | GI50 (UACC-257 melanoma): 1.54 µM | TGI (UACC-257 melanoma): 8.69 µM | GI50 (SF-295 CNS): 1.66 µM | TGI (SF-295 CNS): 5.75 µM | GI50 (RPMI-8226 leukemia): 0.75 µM | TGI (RPMI-8226 leukemia): 4.48 µM | GI50 (SW-620 colon): 3.16 µM | TGI (SW-620 colon): 20.4 µM | GI50 (HCC-2998 colon): 3.61 µM | TGI (HCC-2998 colon): 19.3 µM | GI50 (SK-MEL-2 melanoma): 1.22 µM | TGI (SK-MEL-2 melanoma): 5.01 µM | GI50 (SR leukemia): 2.27 µM | TGI (SR leukemia): 8.74 µM | GI50 (DU-145 prostate): 3.62 µM | TGI (DU-145 prostate): 20.8 µM | GI50 (SN12C renal): 1.83 µM | TGI (SN12C renal): 8.45 µM | GI50 (LOX IMVI melanoma): 4.54 µM | TGI (LOX IMVI melanoma): 17.7 µM | GI50 (SK-MEL-28 melanoma): 3.35 µM | TGI (SK-MEL-28 melanoma): 77.2 µM | GI50 (PC-3 prostate): 1.77 µM | TGI (PC-3 prostate): 8.7 µM | GI50 (ACHN renal): 2.55 µM | TGI (ACHN renal): 10.5 µM | GI50 (BT-549 breast): 2.11 µM | TGI (BT-549 breast): 11.2 µM | GI50 (KM12 colon): 2.75 µM | TGI (KM12 colon): 33.4 µM | GI50 (HOP-62 NSCLC): 2.69 µM | TGI (HOP-62 NSCLC): 11.2 µM | GI50 (TK-10 renal): 3.43 µM | TGI (TK-10 renal): 16.2 µM | GI50 (K-562 leukemia): 1.45 µM | TGI (K-562 leukemia): 12.8 µM | GI50 (SNB-75 CNS): 1.93 µM | TGI (SNB-75 CNS): 8.45 µM | GI50 (EKVX NSCLC): 2.84 µM | TGI (EKVX NSCLC): 15.3 µM | GI50 (RXF 393 renal): 2.24 µM | TGI (RXF 393 renal): 7 µM | GI50 (HL-60(TB) leukemia): 1.89 µM | TGI (HL-60(TB) leukemia): 5.43 µM | GI50 (SF-268 CNS): 2.37 µM | TGI (SF-268 CNS): 25.9 µM | GI50 (A498 renal): 0.141 µM | TGI (A498 renal): 2.86 µM | GI50 (MOLT-4 leukemia): 2.16 µM | TGI (MOLT-4 leukemia): 9.92 µM | GI50 (U251 CNS): 3.04 µM | TGI (U251 CNS): 13.2 µM | GI50 (NCI-H460 lung): 2.02 µM | TGI (NCI-H460 lung): 10.2 µM | GI50 (HT29 colon): 3.07 µM | TGI (HT29 colon): 11.6 µM | GI50 (M14 melanoma): 2.84 µM | TGI (M14 melanoma): > 100 µM | GI50 (786-0 renal): 3.41 µM | TGI (786-0 renal): 14 µM | GI50 (MDA-MB-435): 2.55 µM | TGI (MDA-MB-435): > 100 µM | GI50 (HCT-15 colon): 2.34 µM | TGI (HCT-15 colon): 45.4 µM | GI50 (T-47D breast): 1.63 µM | TGI (T-47D breast): > 100 µM | GI50 (NCI/ADR-RES ovarian): 2.85 µM | TGI (NCI/ADR-RES ovarian): 12.1 µM
